Test results published in publication PMC6057649, “Development of NanoLuc-PEST expressing Leishmania mexicana as a new drug discovery tool for axenic- and intramacrophage-based assays” (PLoS Neglected Tropical Diseases, 2018).

Tested on: NanoLuc-PEST expressing L. mexicana axenic amastigotes
Test: microbe, parasite or virus in culture
Type: cell-based
Details: for EC50: hit compounds from the axenic amastigote screen, S3 Table, read-out: EC50, Axenic Amastigotes
[1] = 2 µM compound, 72 hours, relative to DMSO only control, n = 4
[2] = 10 µM compound, 72 hours, relative to DMSO only control, n = 4

| SMILES | Relative Bioluminescence (%) [1] [%] | Relative Bioluminescence (%) [2] [%] | EC50 [nM] | viability at 2 µM (Leishmania mexicana, 2 µM compound, 72 hours, relative to DMSO only control, n = 4, read-out: Relative Bioluminescence (%)) [%] | viability at 10 µM (Leishmania mexicana, 10 µM compound, 72 hours, relative to DMSO only control, n = 4, read-out: Relative Bioluminescence (%)) [%] |
| --- | --- | --- | --- | --- | --- |
| CC1(C)OB(O)c2ccc(C3=NOC(c4cc(Cl)c(F)c(Cl)c4)(C(F)(F)F)C3)cc21 (stereo not drawn) [MMV687775] | 54.77 | 7.40 | – | – | – |
| Cc1[nH]c2cc(F)cc(F)c2c(=O)c1-c1ccc(Oc2ccc(OC(F)(F)F)cc2)cc1 [MMV671636] | 40.19 | 3.97 | – | – | – |
| Cc1ccc2[nH]c(C3CCCNC3)c(-c3ccncc3)c2c1 (stereo not drawn) [MMV024311] | 109.56 | 88.36 | – | – | – |
| O=C1N(Cc2cc3ccccc3s2)CC2CN(Cc3ccccc3)CCN12 (stereo not drawn) [MMV084603] | 70.21 | 61.10 | – | – | – |
| Cc1nnc(NCc2cccc(Cl)c2)c2ccccc12 [MMV676555] | 104.08 | 90.53 | – | – | – |
| Cc1cccnc1NC(=O)c1cccc(OCc2c(C)noc2C)c1 [MMV688793] | 74.59 | 52.13 | – | – | – |
| Brc1c(-c2ccc3c(c2)OCO3)nc2ncccn12 [MMV676377] | 78.14 | 74.59 | – | – | – |
| CC(C)NCC(=O)Nc1cccc(C(=O)Nc2cccc(C(F)(F)F)c2)c1 [MMV020165] | 63.67 | 61.89 | – | – | – |
| COc1ccc2nccc(NC(=O)C3CCN(CCc4ccc(Cl)cc4)CC3)c2n1 [MMV688844] | 77.54 | 91.56 | – | – | – |
| COc1ccc(C2=NN(C3CCCCCC3)C(=O)C2(C)C)cc1OCCCCOc1ccc(-c2nn[nH]n2)cc1 [MMV690028] | 55.46 | 1.50 | – | – | – |
| COc1ccccc1CNC(=O)c1cc(C2CC2)nc2c1cnn2C(C)C [MMV020517] | 97.70 | 63.10 | – | – | – |
| O=C(Nc1ccc(C(F)(F)F)c(C(F)(F)F)c1)c1cc(Cl)ccc1O [MMV687807] | 0.88 | 0.53 | 250 | – | – |
| COc1cc(Br)cc2cc(C(=O)Nc3cccc(C(F)(F)F)c3)c(=O)oc12 [MMV688891] | 75.74 | 64.36 | – | – | – |
| COc1cccc(OC)c1C(=O)Nc1ccc(Cl)c(-c2nc3ccccc3s2)c1 [MMV676472] | 106.46 | 93.04 | – | – | – |
| Cc1ccc(S(=O)(=O)n2cc(-c3ccnc(N)c3)c3cc(Br)cnc32)cc1 [MMV024114] | 103.63 | 69.99 | – | – | – |
| Cc1cc(NC(=O)c2ccc(S(=O)(=O)N(Cc3ccccc3)C(C)C)cc2)no1 [MMV007133] | 102.77 | 71.20 | – | – | – |
| Clc1ccc(-n2cc(COc3ccnc4ccccc34)nn2)cc1 [MMV675994] | 74.96 | 81.16 | – | – | – |
| COc1ccc(-c2onc(C(F)(F)F)c2-c2ccc(Cl)cc2)c(O)c1 [MMV688766] | 82.40 | -2.36 | – | – | – |
| COc1nc2ccc(Br)cc2cc1[C@@H](c1ccccc1)[C@@](O)(CCN(C)C)c1cccc2ccccc12 [MMV689758, Bedaquiline, reference compound] | – | – | – | 94.9 | 45.4 |
| Cn1c(=O)c2c(S(C)(=O)=O)snc2n(C)c1=O [MMV687251] | -4.37 | -0.24 | 480 | – | – |
| Cc1cc(C2=NOC(c3cc(Cl)c(F)c(Cl)c3)(C(F)(F)F)C2)ccc1C(=O)NCc1ccc2c(c1)C(C)(C)OB2O (stereo not drawn) [MMV687776] | 57.43 | -1.15 | – | – | – |
| CCC(NC(=O)c1ccccc1NC(=O)c1ccc(C)cc1)C(=O)OC (stereo not drawn) [MMV019551] | 70.29 | 42.20 | – | – | – |
| NS(=O)(=O)c1cccc(-c2ccc3ncc(N4CCOCC4)nc3c2)c1 [MMV023860] | 79.77 | 74.37 | – | – | – |
